# ChEMBL document CHEMBL1122784, “Antitumor imidazotetrazines. 1. Synthesis and chemistry of 8-carbamoyl-3-(2-chloroethyl)imidazo[5,1-d]-1,2,3,5-tetrazin-4(3 H)-one , a novel broad-spectrum antitumor agent” (J Med Chem, 1984)
# What was measured:
# [1] = tested on: Mus musculus; assay: (§1) Compound was evaluated for number of survivors in P388 leukemia implanted BDF1 mice on day 0 after ip administration of 20 mg/kg/day on day 60 out of 5 mice; assay type: functional; conditions: route intraperitoneal
# [2] = tested on: Mus musculus; assay: Compound was evaluated for %T/C in L1210 leukemia implanted BDF1 mice on day 0 after ip administration of 5 mg/kg/day on day 1; assay type: functional; conditions: route intraperitoneal
# [3] = tested on: Mus musculus; assay: Compound was evaluated for number of survivors in P388 leukemia implanted BDF1 mice on day 0 after ip administration of 40 mg/kg/day on day 60 out of 5 mice; assay type: functional; conditions: route intraperitoneal
# [4] = tested on: Mus musculus; assay: Compound was tested for mortality in P388 leukemia implanted BDF1 mice on day 0 after ip administration of 80 mg/kg/day on day 1 out of 5 mice; assay type: functional; conditions: route intraperitoneal
# [5] = tested on: Mus musculus; assay: Compound was tested for mortality in L1210 leukemia implanted BDF1 mice on day 0 after ip administration of 12.5 mg/kg/day on day 1-9 out of 6 mice; assay type: functional; conditions: route intraperitoneal
# [6] = tested on: Mus musculus; assay: Compound was evaluated for %T/C in P388 leukemia implanted BDF1 mice on day 0 after ip administration of 20 mg/kg/day on day 1; assay type: functional; conditions: route intraperitoneal
# [7] = tested on: Mus musculus; assay: Compound was tested for mortality in P388 leukemia implanted BDF1 mice on day 0 after ip administration of 7.5 mg/kg/day on day 1-5 out of 5 mice; assay type: functional; conditions: route intraperitoneal
# [8] = tested on: Mus musculus; assay: Compound was evaluated for %T/C in P388 leukemia implanted BDF1 mice on day 0 after ip administration of 5 mg/kg/day on day 1-5; assay type: functional; conditions: route intraperitoneal
# [9] = tested on: Mus musculus; assay: Compound was evaluated for %T/C in P388 leukemia implanted BDF1 mice on day 0 after ip administration of 12.5 mg/kg/day on day 1-5; assay type: functional; conditions: route intraperitoneal
# [10] = tested on: Mus musculus; assay: Compound was evaluated for %T/C in P388 leukemia implanted BDF1 mice on day 0 after ip administration of 80 mg/kg/day on day 1; assay type: functional; conditions: route intraperitoneal
# [11] = tested on: Mus musculus; assay: Compound was tested for mortality in P388 leukemia implanted BDF1 mice on day 0 after ip administration of 25 mg/kg/day on day 1-5 out of 6 mice; assay type: functional; conditions: route intraperitoneal
# [12] = tested on: Mus musculus; assay: Compound was evaluated for %T/C in P388 leukemia implanted BDF1 mice on day 0 after ip administration of 5 mg/kg/day on day 1; assay type: functional; conditions: route intraperitoneal
# [13] = tested on: Mus musculus; assay: Compound was evaluated for number of survivors in P388 leukemia implanted BDF1 mice on day 0 after ip administration of 6.25 mg/kg/day on day 60 out of 6 mice; assay type: functional; conditions: route intraperitoneal
# [14] = tested on: Mus musculus; assay: Compound was evaluated for %T/C in L1210 leukemia implanted BDF1 mice on day 0 after ip administration of 20 mg/kg/day on days 1-5; assay type: functional; conditions: route intraperitoneal
# [15] = tested on: Mus musculus; assay: Compound was evaluated for %T/C in P388 leukemia implanted BDF1 mice on day 0 after ip administration of 10 mg/kg/day on day 1; assay type: functional; conditions: route intraperitoneal
# [16] = tested on: Mus musculus; assay: Compound was evaluated for %T/C in L1210 leukemia implanted BDF1 mice on day 0 after ip administration of 50 mg/kg/day on day 1-9; assay type: functional; conditions: route intraperitoneal
# [17] = tested on: Mus musculus; assay: Compound was tested for mortality in L1210 leukemia implanted BDF1 mice on day 0 after ip administration of 7.5 mg/kg/day on day 1-5 out of 5 mice; assay type: functional; conditions: route intraperitoneal
# [18] = tested on: Mus musculus; assay: Compound was tested for mortality in P388 leukemia implanted BDF1 mice on day 0 after ip administration of 10 mg/kg/day on day 1-5 out of 5 mice; assay type: functional; conditions: route intraperitoneal
# [19] = tested on: Mus musculus; assay: Compound was evaluated for %T/C in P388 leukemia implanted BDF1 mice on day 0 after ip administration of 2.5 mg/kg/day on day 1-5; assay type: functional; conditions: route intraperitoneal
# [20] = tested on: Mus musculus; assay: Compound was evaluated for number of survivors in L1210 leukemia implanted BDF1 mice on day 0 after ip administration of 5 mg/kg/day on day 60 out of 5 mice; assay type: functional; conditions: route intraperitoneal
# [21] = tested on: Mus musculus; assay: Compound was tested for mortality in P388 leukemia implanted BDF1 mice on day 0 after ip administration of 2.5 mg/kg/day on day 1-5 out of 5 mice; assay type: functional; conditions: route intraperitoneal
# [22] = tested on: Mus musculus; assay: Compound was evaluated for %T/C in P388 leukemia implanted BDF1 mice on day 0 after ip administration of 6.25 mg/kg/day on day 1-5; assay type: functional; conditions: route intraperitoneal
# [23] = tested on: Mus musculus; assay: Compound was tested for mortality in P388 leukemia implanted BDF1 mice on day 0 after ip administration of 12.5 mg/kg/day on day 1-5 out of 6 mice; assay type: functional; conditions: route intraperitoneal
# [24] = tested on: Mus musculus; assay: Compound was tested for mortality in L1210 leukemia implanted BDF1 mice on day 0 after ip administration of 25 mg/kg/day on day 1-9 out of 6 mice; assay type: functional; conditions: route intraperitoneal
# [25] = tested on: Mus musculus; assay: Compound was evaluated for %T/C in L1210 leukemia implanted BDF1 mice on day 0 after ip administration of 5 mg/kg/day on day 1-5; assay type: functional; conditions: route intraperitoneal
# [26] = Half-life period in phosphate buffer at pH 7.4 in the dark at 28 degrees celsius.; assay type: ADME
# [27] = tested on: Mus musculus; assay: Compound was evaluated for number of survivors in L1210 leukemia implanted BDF1 mice on day 0 after ip administration of 50 mg/kg/day on day 60 out of 6 mice; assay type: functional; conditions: route intraperitoneal
# [28] = tested on: Mus musculus; assay: Compound was evaluated for %T/C in L1210 leukemia implanted BDF1 mice on day 0 after ip administration of 10 mg/kg/day on day 1-5; assay type: functional; conditions: route intraperitoneal
# [29] = tested on: Mus musculus; assay: Compound was evaluated for %T/C in P388 leukemia implanted BDF1 mice on day 0 after ip administration of 40 mg/kg/day on day 1; assay type: functional; conditions: route intraperitoneal
# [30] = tested on: Mus musculus; assay: as §1; assay type: functional; conditions: route intraperitoneal; remark: listed apart in the source
# [31] = tested on: Mus musculus; assay: Compound was evaluated for number of survivors in L1210 leukemia implanted BDF1 mice on day 0 after ip administration of 12.5 mg/kg/day on day 60 out of 6 mice; assay type: functional; conditions: route intraperitoneal
# [32] = tested on: Mus musculus; assay: Compound was evaluated for number of survivors in L1210 leukemia implanted BDF1 mice on day 0 after ip administration of 2.5 mg/kg/day on day 60 out of 5 mice; assay type: functional; conditions: route intraperitoneal
# [33] = tested on: Mus musculus; assay: Compound was tested for mortality in P388 leukemia implanted BDF1 mice on day 0 after ip administration of 10 mg/kg/day on day 1 out of 5 mice; assay type: functional; conditions: route intraperitoneal
# [34] = tested on: Mus musculus; assay: Compound was evaluated for %T/C in L1210 leukemia implanted BDF1 mice on day 0 after ip administration of 25 mg/kg/day on day 1-9; assay type: functional; conditions: route intraperitoneal
# [35] = tested on: Mus musculus; assay: Compound was evaluated for %T/C in L1210 leukemia implanted BDF1 mice on day 0 after ip administration of 20 mg/kg/day on day 1; assay type: functional; conditions: route intraperitoneal
# [36] = tested on: Mus musculus; assay: Compound was tested for mortality in L1210 leukemia implanted BDF1 mice on day 0 after ip administration of 5 mg/kg/day on day 1 out of 5 mice; assay type: functional; conditions: route intraperitoneal
# [37] = tested on: Mus musculus; assay: Compound was evaluated for number of survivors in L1210 leukemia implanted BDF1 mice on day 0 after ip administration of 20 mg/kg/day on day 60 out of 5 mice; assay type: functional; conditions: route intraperitoneal
# [38] = tested on: Mus musculus; assay: Compound was evaluated for %T/C in L1210 leukemia implanted BDF1 mice on day 0 after ip administration of 80 mg/kg/day on day 1; assay type: functional; conditions: route intraperitoneal
# [39] = tested on: Mus musculus; assay: Compound was tested for mortality in L1210 leukemia implanted BDF1 mice on day 0 after ip administration of 80 mg/kg/day on day 1 out of 5 mice; assay type: functional; conditions: route intraperitoneal
# [40] = tested on: Mus musculus; assay: Compound was evaluated for number of survivors in L1210 leukemia implanted BDF1 mice on day 0 after ip administration of 25 mg/kg/day on day 60 out of 6 mice; assay type: functional; conditions: route intraperitoneal
smiles,measurement,setting,value
NC(=O)c1ncn2c(=O)n(CCCl)nnc12 [MITOZOLOMIDE],Survivors,[1],5
same,T/C,[2],111%
same,Survivors,[3],5
same,Mortality,[4],0
same,Mortality,[5],0
same,T/C,[6],>600%
same,Mortality,[7],0
same,T/C,[8],277%
same,T/C,[9],275%
same,T/C,[10],74%
same,Mortality,[11],0
same,T/C,[12],132%
same,Survivors,[13],0
same,T/C,[14],>577%
same,T/C,[15],164%
same,T/C,[16],137%
same,Mortality,[17],0
same,Mortality,[18],0
same,T/C,[19],148%
same,Survivors,[20],0
same,Mortality,[21],0
same,T/C,[22],180%
same,Mortality,[23],0
same,Mortality,[24],0
same,T/C,[25],139%
same,half-life,[26],1.63 h
same,Survivors,[27],0
same,T/C,[28],>577%
same,T/C,[29],>600%
same,Survivors,[30],5
same,Survivors,[31],6
same,Survivors,[32],0
same,Mortality,[33],0
same,T/C,[34],>745%
same,T/C,[35],198%
same,Mortality,[36],0
same,Survivors,[37],5
same,T/C,[38],177%
same,Mortality,[39],0
same,Survivors,[40],6
